The record followed here is the NIST ThermoML archive (doi:10.1016/j.tca.2014.09.022).

A short description of data set [1]: Molar enthalpy of transition or fusion. The following applies: DSC.
The conditions of data set [2]: DTA.

± gives the expanded uncertainty stated by the source.

With `Oc1ccc(O)cc1` [1,4-benzenediol], the “Molar enthalpy of transition or fusion” value in data set [1] (Crystal) is 5.68 ± 0.311 kcal/mol. Also, in data set [2] (Crystal), the Triple point temperature was 445.65 ± 2.5 K.

As for `O=C(O)CCCC(=O)O` [1,5-pentanedioic acid], the “Molar enthalpy of transition or fusion” value in data set [1] (Crystal) stood at 5.02 ± 0.287 kcal/mol. The Triple point temperature in data set [2] (Crystal) turned out to be 369.65 ± 2.5 K.

Take `O=C(O)CCCCCCCCC(=O)O` [1,10-decanedioic acid]: the “Molar enthalpy of transition or fusion” value in data set [1] (Crystal) turned out to be 10.7 ± 0.574 kcal/mol. Besides, the Triple point temperature in data set [2] (Crystal) was 405.65 ± 2.5 K.

`OCCCCCCCCCCO` [1,10-decanediol]: the “Molar enthalpy of transition or fusion” value in data set [1] (Crystal) is 10.7 ± 0.574 kcal/mol. Besides, in data set [2] (Crystal), the Triple point temperature is reported as 344.65 ± 2.5 K.

As for `OC[C@@H](O)[C@@H](O)CO` [meso-1,2,3,4-butanetetrol], the “Molar enthalpy of transition or fusion” value in data set [1] (Crystal) turned out to be 9.54 ± 0.502 kcal/mol. For the same compound, in data set [2] (Crystal), the Triple point temperature stood at 390.15 ± 3 K.

As for `CNC(N)=O` [methylurea], in data set [1] (Crystal), the “Molar enthalpy of transition or fusion” value came to 3.05 ± 0.177 kcal/mol. Also, in data set [2] (Crystal), the Triple point temperature is listed as 368.15 ± 5 K.

As to `CCCCCCCCCCCCCCCCCCCCCCCCCCCC` [octacosane], the “Molar enthalpy of transition or fusion” value in data set [1] (Crystal 1) amounted to 15.3 ± 0.86 kcal/mol; in data set [1] (Crystal 2), 8.49 ± 0.478 kcal/mol. Besides, the Triple point temperature amounted to 335.65 ± 2.5 K in data set [2] (Crystal 1) and 330.65 ± 2.5 K in data set [2] (Crystal 2).
